Legend:
Test in all cases: Post-emergence efficacy (glasshouse)
Format in all cases: in vivo
Conditions in all cases: evaluated after 13 days
Lolium perenne (LOLPE) = test system: Lolium perenne (LOLPE)
Protocol: (§1) Seeds of a variety of test species (such as, for example, Solanum nigrum (SOLNI), Amaranthus retoflexus (AMARE), Setaria faberi (SETFA), Echinochloa crusgalli (ECHCG), Ipomoea hederacea (IPOHE) and Lolium perenne (LOLPE)) are sown in standard soil in pots. After 8 days cultivation (post-emergence) under controlled conditions in a glasshouse (at 24/16° C., day/night; 14 hours light; 65% humidity), the plants are sprayed with an aqueous spray solution derived from the formulation of the technical active ingredient in acetone/water (50:50) solution containing 0.5% Tween 20 (polyoxyethylene sorbitan monolaurate, CAS RN 9005-64-5). Compounds are applied at 1000 and 62.5 g/ha. The test plants are then grown under controlled conditions in a glasshouse (at 24/16° C., day/night; 14 hours light; 65% humidity) and watered twice daily. After 13 days, the test is evaluated for the percentage damage caused to the plant. The biological activities are assessed on a five point scale (5=80-100%; 4=60-79%; 3=40-59%; 2=20-39%; 1=0-19%).

[1] = test system: Ipomoea hederacea (IPOHE)
Protocol: as §1

[2] = test system: Amaranthus retoflexus (AMARE)
Protocol: as §1

Solanum nigrum (SOLNI) = test system: Solanum nigrum (SOLNI)
Protocol: as §1

Setaria faberi (SETFA) = test system: Setaria faberi (SETFA)
Protocol: as §1

[3] = test system: Echinochloa crusgalli (ECHCG)
Protocol: as §1

| SMILES | percentage damage caused to the plant, LOLPE (five point scale) (Lolium perenne (LOLPE); 62.5 g/ha) | percentage damage caused to the plant, LOLPE (five point scale) (Lolium perenne (LOLPE); 1000 g/ha) | percentage damage caused to the plant, IPOHE (five point scale) ([1]; 62.5 g/ha) | percentage damage caused to the plant, IPOHE (five point scale) ([1]; 1000 g/ha) | percentage damage caused to the plant, AMARE (five point scale) ([2]; 62.5 g/ha) | percentage damage caused to the plant, AMARE (five point scale) ([2]; 1000 g/ha) | percentage damage caused to the plant, SOLNI (five point scale) (Solanum nigrum (SOLNI); 62.5 g/ha) | percentage damage caused to the plant, SOLNI (five point scale) (Solanum nigrum (SOLNI); 1000 g/ha) | percentage damage caused to the plant, SETFA (five point scale) (Setaria faberi (SETFA); 62.5 g/ha) | percentage damage caused to the plant, SETFA (five point scale) (Setaria faberi (SETFA); 1000 g/ha) | percentage damage caused to the plant, ECHCG (five point scale) ([3]; 62.5 g/ha) | percentage damage caused to the plant, ECHCG (five point scale) ([3]; 1000 g/ha) |
| --- | --- | --- | --- | --- | --- | --- | --- | --- | --- | --- | --- | --- |
| C#CCn1c(=O)c(-c2c(Cl)ccc(Cl)c2OCc2ccccc2)c(O)c2scnc21 [Compound 1.001, 6-(2-benzyloxy-3,6-dichloro-phenyl)-7-hydroxy-4-prop-2-ynyl-thiazolo[4,5-b]pyridin-5-one] | 5 (5=80-100%) | 5 (5=80-100%) | 5 (5=80-100%) | 5 (5=80-100%) | 5 (5=80-100%) | 5 (5=80-100%) | 5 (5=80-100%) | 5 (5=80-100%) | 5 (5=80-100%) | 5 (5=80-100%) | 5 (5=80-100%) | 5 (5=80-100%) |
| O=c1c(-c2c(C(F)(F)F)ccc(Cl)c2OCc2ccccc2)c(O)c2scnc2n1CC(F)F [Compound 1.029] | 2 (2=20-39%) | 5 (5=80-100%) | 4 (4=60-79%) | 5 (5=80-100%) | 4 (4=60-79%) | 5 (5=80-100%) | 5 (5=80-100%) | 5 (5=80-100%) | 2 (2=20-39%) | 5 (5=80-100%) | 3 (3=40-59%) | 5 (5=80-100%) |
| O=c1c(-c2c(Cl)ccc(Cl)c2OCc2ccccc2)c(O)c2scnc2n1CC(F)F [Compound 1.021] | 4 (4=60-79%) | 5 (5=80-100%) | 5 (5=80-100%) | 5 (5=80-100%) | 5 (5=80-100%) | 5 (5=80-100%) | 5 (5=80-100%) | 5 (5=80-100%) | 4 (4=60-79%) | 5 (5=80-100%) | 4 (4=60-79%) | 5 (5=80-100%) |
| Cn1c(=O)c(-c2c(C(F)(F)F)ccc(Cl)c2OCc2ccccc2)c(O)c2scnc21 [Compound 1.019] | 3 (3=40-59%) | 5 (5=80-100%) | 5 (5=80-100%) | 5 (5=80-100%) | 4 (4=60-79%) | 5 (5=80-100%) | 5 (5=80-100%) | 5 (5=80-100%) | 3 (3=40-59%) | 5 (5=80-100%) | 3 (3=40-59%) | 5 (5=80-100%) |

Source: patent US20170347654A1, “Herbicidal Compounds” (SYNGENTA PARTICIPATIONS AG, priority 2014, published 2017)
